Values after ≈ are worked out from the molar mass of the structure shown. Read-outs that look alike come from different tables or passages of the source. Marks after values point to notes of the source that are not given here.
What was measured:
[1] = tested on: IIIB strain of HIV-1 (wild-type); assay: Anti-HIV-1 activity, MT-2 cells infected with wild-type HIV-1 (IIIB), MTT method; type: cell-based; conditions: for EC50: Human immunodeficiency virus 1, IIIB, MT2, read-out: EC50 WT
HIV-1 Y181C variant = assay: microbe, parasite or virus in culture; type: cell-based
physchem = conditions: for increase in S: 48 h; for solubility at 48 h: 25 °C, thermodynamic from solid
Description: The compounds were dissolved in Britton-Robinson buffer and stirred in vials for 48 hours at 25° C. The pH of the buffer solutions was measured by a Corning General Purpose pH Combination probe (4136L21).
For measurement of aqueous solubility, the pH of the buffer solutions was measured by Corning Combination pH Electrodes (4136L21) pH meter with Ag/AgCl glass electrode. […] An Ika® RCT basic magnetic stirrer was used to mix the two phases.
The equilibrium solubility of the non-ionized form of the samples was determined by the shake flask method. For each reported solubility result, two or three independent shake-flask experiments were carried out in parallel. For each experiment the 5 mg of the solid was added to 5 mL of the buffer in a vial. […] The standards and samples were measured by UV spectrophotometry at the maximum wavelength of the individual compounds.

[2] = tested on: HIV-1 K103N/Y181C variant; assay: microbe, parasite or virus in culture; type: cell-based
in vitro = conditions: human
[3] = cited from earlier work; for aqueous solubility: literature values
[4] = Human immunodeficiency virus 1, MT2, read-out: EC50, Y181C variant
[5] = Human immunodeficiency virus 1, MT2, read-out: EC50 Y181C
[6] = Human immunodeficiency virus 1, MT2, read-out: EC50 K103N/Y181C

SMILES | EC50 (HIV-1 Y181C variant; [5]) | EC50 [2, 6] | EC50 [1] | CC50 (in vitro) | other results
COc1nc(Nc2ccc(C#N)c(OCC=C(C)C)c2)nc(OCCN2CCOCC2)n1 [Compound 2j, 4-((4-methoxy-6-(2-morpholinoethoxy)-1,3,5-triazin-2-yl)amino)-2-((3-methylbut-2-en-1-yl)oxy)benzonitrile] |  |  |  |  | reduction in wild-type potency ([1]; relative to parent lacking the morpholinoalkoxy group (2a; 10a)): 9 fold; activity in the wild-type cell assay less ([1]; than rilpivirine or dapivirine): 100 fold; activity towards the Y181C-containing viral variant (HIV-1 Y181C variant): does not show activity
Cc1cc(C)c(Nc2cc(OCCN3CCOCC3)nc(Nc3ccc(C#N)cc3)n2)c(C)c1 [Compound 5a, 4-((4-(mesitylamino)-6-(2-morpholinoethoxy)pyrimidin-2-yl)amino)benzonitrile] | 700 nM | 60 nM |  |  | EC50 (HIV-1 Y181C variant; [4]): 700 nM; increase in S (physchem): 83 fold; Aqueous Solubility (S) (physchem; Table 5, pH 6.5): 12.5 µg/mL
Cc1cc(C)c(Nc2cc(OCCCN3CCOCC3)nc(Nc3ccc(C#N)cc3)n2)c(C)c1 [Compound 5b, 4-((4-(mesitylamino)-6-(3-morpholinopropoxy)pyrimidin-2-yl)amino)benzonitrile] | 480 nM | 38 nM |  |  | EC50 (HIV-1 Y181C variant; [4]): 480 nM; increase in S (physchem): 182 fold; Aqueous Solubility (S) (physchem; Table 5, pH 6.5): 27.3 µg/mL
Cc1cc(/C=C/C#N)cc(C)c1Nc1cc(OCCCN2CCOCC2)nc(Nc2ccc(C#N)cc2)n1 [Compound 5c, (E)-4-((4-((4-(2-cyanovinyl)-2,6-dimethylphenyl)amino)-6-(3-morpholinopropoxy)pyrimidin-2-yl)amino)benzonitrile] | 15 nM | 3 nM | 3.7 nM | 6400 nM | solubility at 48 h (physchem; pH 6.5, aqueous buffer): 2 µg/mL
N#C/C=C/c1cc(F)c(Nc2cc(OCCCN3CCOCC3)nc(Nc3ccc(C#N)cc3)n2)c(F)c1 [Compound 5d, (E)-4-((4-((4-(2-cyanovinyl)-2,6-difluorophenyl)amino)-6-(3-morpholinopropoxy)pyrimidin-2-yl)amino)benzonitrile] | 150 nM | 7.1 nM | 4.1 nM | 18000 nM | 
Cc1cc(C)c(Nc2nc(Nc3ccc(C#N)cc3)nc(OCCN3CCOCC3)n2)c(C)c1 [Compound 6a, 4-((4-(mesitylamino)-6-(2-morpholinoethoxy)-1,3,5-triazin-2-yl)amino)benzonitrile] | 700 nM | 110 nM |  |  | Aqueous Solubility (S) (physchem; Table 5, pH 6.5): 4.42 µg/mL
Cc1cc(C)c(Nc2nc(Nc3ccc(C#N)cc3)nc(OCCCN3CCOCC3)n2)c(C)c1 [Compound 6b, 4-((4-(mesitylamino)-6-(3-morpholinopropoxy)-1,3,5-triazin-2-yl)amino)benzonitrile] | 310 nM | 31 nM |  |  | EC50 (HIV-1 Y181C variant; [4]): 310 nM; Aqueous Solubility (S) (physchem; Table 5, pH 6.5): 15.3 µg/mL; EC50 ([2]; Human immunodeficiency virus 1, MT2, read-out: EC50, K103N/Y181C variant): 31 nM
Cc1cc(C#N)cc(C)c1Nc1nc(Nc2ccc(C#N)cc2)nc(OCCCN2CCOCC2)n1 [Compound 6c, 4-((4-((4-cyanophenyl)amino)-6-(3-morpholinopropoxy)-1,3,5-triazin-2-yl)amino)-3,5-dimethylbenzonitrile] | 1000 nM | 42 nM |  |  | Aqueous Solubility (S) (physchem; Table 5, pH 6.5): 13.3 µg/mL
Cc1cc(/C=C/C#N)cc(C)c1Nc1nc(Nc2ccc(C#N)cc2)nc(OCCCN2CCOCC2)n1 [Compound 6d, (E)-4-((4-((4-(2-cyanovinyl)-2,6-dimethylphenyl)amino)-6-(3-morpholinopropoxy)-1,3,5-triazin-2-yl)amino)benzonitrile] |  |  |  |  | solubility at 48 h (physchem; aqueous buffer): 14.2 µg/mL; increase in S (physchem): 100 fold; Aqueous Solubility (S) (physchem; Table 5, pH 6.5): 14.2 µg/mL
Cc1cc(F)c(Nc2nc(Nc3ccc(C#N)cc3)nc(OCCCN3CCOCC3)n2)c(F)c1 [Compound 6e, 4-((4-((2,6-difluoro-4-methylphenyl)amino)-6-(3-morpholinopropoxy)-1,3,5-triazin-2-yl)amino)benzonitrile] | 350 nM | 70 nM |  |  | Aqueous Solubility (S) (physchem; Table 5, pH 6.5): 22.9 µg/mL
CCc1cc(F)c(Nc2nc(Nc3ccc(C#N)cc3)nc(OCCCN3CCOCC3)n2)c(F)c1 [Compound 6f, 4-((4-((4-ethyl-2,6-difluorophenyl)amino)-6-(3-morpholinopropoxy)-1,3,5-triazin-2-yl)amino)benzonitrile] | 500 nM | 50 nM |  |  | 
CC(C)c1cc(F)c(Nc2nc(Nc3ccc(C#N)cc3)nc(OCCCN3CCOCC3)n2)c(F)c1 [Compound 6g, 4-((4-((2,6-difluoro-4-isopropylphenyl)amino)-6-(3-morpholinopropoxy)-1,3,5-triazin-2-yl)amino)benzonitrile] | 270 nM | 30 nM |  |  | 
N#Cc1ccc(Nc2nc(Nc3c(F)cc(C4CC4)cc3F)nc(OCCCN3CCOCC3)n2)cc1 [Compound 6h, 4-((4-((4-cyclopropyl-2,6-difluorophenyl)amino)-6-(3-morpholinopropoxy)-1,3,5-triazin-2-yl)amino)benzonitrile] | 1100 nM | 150 nM |  |  | 
N#CCCc1cc(F)c(Nc2nc(Nc3ccc(C#N)cc3)nc(OCCCN3CCOCC3)n2)c(F)c1 [Compound 6i, 4-((4-((4-(2-cyanoethyl)-2,6-difluorophenyl)amino)-6-(3-morpholinopropoxy)-1,3,5-triazin-2-yl)amino)benzonitrile] | 230 nM | 20 nM | 5 nM | 27000 nM | solubility at 48 h (physchem; pH 6.5, aqueous buffer): 25.4 µg/mL
N#C/C=C/c1cc(F)c(Nc2nc(Nc3ccc(C#N)cc3)nc(OCCCN3CCOCC3)n2)c(F)c1 [Compound 6j, (E)-4-((4-((4-(2-cyanovinyl)-2,6-difluorophenyl)amino)-6-(3-morpholinopropoxy)-1,3,5-triazin-2-yl)amino)benzonitrile] | 630 nM | 46 nM | 14 nM | 6500 nM | 
Cc1cc(C)c(Nc2nc(Nc3ccc(C#N)cc3)nc(OCCC3CCNCC3)n2)c(C)c1 [Compound 12a, 4-((4-(mesitylamino)-6-(2-(piperidin-4-yl)ethoxy)-1,3,5-triazin-2-yl)amino)benzonitrile] | 1000 nM | 42 nM |  |  | 
Cc1cc(C)c(Nc2nc(Nc3ccc(C#N)cc3)nc(OCCCC3CCNCC3)n2)c(C)c1 [Compound 12b, 4-((4-(mesitylamino)-6-(3-(piperidin-4-yl)propoxy)-1,3,5-triazin-2-yl)amino)benzonitrile] | 1200 nM | 140 nM |  |  | 
Cc1cc(/C=C/C#N)cc(C)c1Nc1nc(NCCCN2CCOCC2)nc(Nc2ccc(C#N)cc2)n1 [JLJ0596, (E)-4-((4-((4-(2-cyanovinyl)-2,6-dimethylphenyl)amino)-6-((3-morpholinopropyl)amino)-1,3,5-triazin-2-yl)amino)benzonitrile] | 510 nM | 68 nM | 7 nM | 1800 nM | 
N#C/C=C/c1cc(F)c(Nc2nc(NCCCN3CCOCC3)nc(Nc3ccc(C#N)cc3)n2)c(F)c1 [JLJ0597, (E)-4-((4-((4-(2-cyanovinyl)-2,6-difluorophenyl)amino)-6-((3-morpholinopropyl)amino)-1,3,5-triazin-2-yl)amino)benzonitrile] | 75 nM | 16 nM | 5.7 nM | 7000 nM | 
Cc1cc(/C=C/C#N)cc(C)c1Nc1cc(NCCCN2CCOCC2)nc(Nc2ccc(C#N)cc2)n1 [JLJ0618, (E)-4-((4-((4-(2-cyanovinyl)-2,6-dimethylphenyl)amino)-6-((3-morpholinopropyl)amino)pyrimidin-2-yl)amino)benzonitrile] | 17 nM | 2 nM | 3 nM | 4500 nM | 
N#C/C=C/c1cc(F)c(Nc2cc(NCCCN3CCOCC3)nc(Nc3ccc(C#N)cc3)n2)c(F)c1 [JLJ0619, (E)-4-((4-((4-(2-cyanovinyl)-2,6-difluorophenyl)amino)-6-((3-morpholinopropyl)amino)pyrimidin-2-yl)amino)benzonitrile] | 470 nM | 34 nM | 4.5 nM | 2200 nM | 
CN1C(C(=O)Nc2ccccn2)=C(O)c2ccccc2S1(=O)=O [Piroxicam, reference compound] |  |  |  |  | aqueous solubility [3]: 6.4 µg/mL (≈ 19.3 µM); Aqueous Solubility (S) (physchem; shake-flask, 25° C.): 7.2 µg/mL
CC(C)=CCOc1cc(NC(=S)c2ccoc2C)ccc1Cl [UC-781] |  |  |  |  | solubility ([3]; Yang et al. 2008): < 0.03 µg/mL
Cc1cc(C#N)cc(C)c1Oc1nc(Nc2ccc(C#N)cc2)nc(N)c1Br [etravirine] |  |  |  |  | Aqueous Solubility (S) ([3]; Table 5, literature values (Morelock 1994; Weuts 2011)): <<1^b μg/mL; aqueous solubility [3]: lower than 1 μg/mL

— patent US9914709B2, “Compositions and methods of treating HIV-1 infections using same” (YALE UNIVERSITY, priority 2013, dated 2018)
